Laboratory results as given in ChEMBL document CHEMBL1136892, “New 1alpha,25-dihydroxy-19-norvitamin D(3) compounds constrained in a single A-ring conformation: synthesis of the analogues by ring-closing metathesis route and their biological evaluation” (J Med Chem, 2009).
pKi: −log10 of the molar value.

Key:
Rattus norvegicus [1] = assay: Effect on bone calcium mobilization in vitamin D-deficient weanling Sprague-Dawley rat assessed as serum calcium level at 780 pmol/day, ip administered as 4 consecutive daily doses measured 24 hrs after last dose; type: functional
[2] = molecular target: T1, Vitamin D3 receptor (Rattus norvegicus) (UniProt P13053); assay: Activity at VDR in rat osteosarcoma 17/2.8 cells assessed as transcriptional activation of 24-hydroxylase gene promoter after 16 hrs by luciferase reporter gene assay
T1 sequence (whole entry): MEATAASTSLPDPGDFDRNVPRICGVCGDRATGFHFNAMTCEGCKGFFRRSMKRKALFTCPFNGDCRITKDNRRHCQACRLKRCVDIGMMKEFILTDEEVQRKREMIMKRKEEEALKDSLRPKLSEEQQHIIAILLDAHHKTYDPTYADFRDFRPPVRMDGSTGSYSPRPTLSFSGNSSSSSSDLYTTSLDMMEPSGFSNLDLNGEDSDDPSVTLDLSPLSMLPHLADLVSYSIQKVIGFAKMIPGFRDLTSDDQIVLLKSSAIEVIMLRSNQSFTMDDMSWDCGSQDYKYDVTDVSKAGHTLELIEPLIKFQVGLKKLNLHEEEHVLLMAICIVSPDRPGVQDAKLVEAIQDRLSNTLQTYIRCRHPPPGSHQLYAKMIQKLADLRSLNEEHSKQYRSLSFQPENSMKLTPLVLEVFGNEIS

HL-60 [3] = assay: Ratio of ED50 of drug to ED50 of [3H]1-alpha,25-(OH)2D3 for induction of human HL60 cell differentiation into monocytes by NBT reduction assay; type: functional
Vitamin D3 receptor = molecular target: T2, Vitamin D3 receptor (Rattus norvegicus, UniProt P13053); assay: Displacement of [3H]1-alpha,25-(OH)2D3 from rat recombinant full length VDR
T2 sequence (P13053 whole entry): T1 sequence (whole entry)

Rattus norvegicus [4] = assay: Effect on intestinal calcium transport in vitamin D-deficient weanling Sprague-Dawley rat assessed as increase in ratio of serosal to mucosal calcium level at 780 pmol/day, ip administered as 4 consecutive daily doses measured 24 hrs after last dose by everted gut sac method; type: functional
[5] = molecular target: T1, Vitamin D3 receptor (Rattus norvegicus); assay: Ratio of Ki of the drug to Ki of [3H]1-alpha,25-(OH)2D3 for rat recombinant full length VDR
[6] = molecular target: T1, Vitamin D3 receptor (Rattus norvegicus); assay: Ratio of ED50 of compound to ED50 of [3H]1-alpha,25-(OH)2D3 for VDR in rat osteosarcoma 17/2.8 cells by 24-hydroxylase gene transcriptional activation assay
HL-60 [7] = assay: Induction of human HL60 cell differentiation into monocytes after 4 days by NBT reduction assay; type: functional
Rattus norvegicus [8] = assay: Effect on bone calcium mobilization in vitamin D-deficient weanling Sprague-Dawley rat assessed as serum calcium level at 7020 pmol/day, ip administered as 4 consecutive daily doses measured 24 hrs after last dose; type: functional
Rattus norvegicus [9] = assay: Effect on intestinal calcium transport in vitamin D-deficient weanling Sprague-Dawley rat assessed as increase in ratio of serosal to mucosal calcium level at 7020 pmol/day, ip administered as 4 consecutive daily doses measured 24 hrs after last dose by everted gut sac method; type: functional
Rattus norvegicus [10] = assay: Effect on intestinal calcium transport in vitamin D-deficient weanling Sprague-Dawley rat assessed as increase in ratio of serosal to mucosal calcium level at 260 pmol/day, ip administered as 4 consecutive daily doses measured 24 hrs after last dose by everted gut sac method; type: functional
Rattus norvegicus [11] = assay: Effect on intestinal calcium transport in vitamin D-deficient weanling Sprague-Dawley rat assessed as increase in ratio of serosal to mucosal calcium level at 2340 pmol/day, ip administered as 4 consecutive daily doses measured 24 hrs after last dose by everted gut sac method; type: functional
Rattus norvegicus [12] = assay: Effect on bone calcium mobilization in vitamin D-deficient weanling Sprague-Dawley rat assessed as serum calcium level at 260 pmol/day, ip administered as 4 consecutive daily doses measured 24 hrs after last dose; type: functional
Rattus norvegicus [13] = assay: Effect on bone calcium mobilization in vitamin D-deficient weanling Sprague-Dawley rat assessed as serum calcium level at 2340 pmol/day, ip administered as 4 consecutive daily doses measured 24 hrs after last dose; type: functional
Rattus norvegicus [14] = assay: Effect on bone calcium mobilization in vitamin D-deficient weanling Sprague-Dawley rat assessed as serum calcium level at 87 pmol/day, ip administered as 4 consecutive daily doses measured 24 hrs after last dose; type: functional
Rattus norvegicus [15] = assay: Effect on intestinal calcium transport in vitamin D-deficient weanling Sprague-Dawley rat assessed as ratio of serosal to mucosal calcium level at 87 pmol/day, ip administered as 4 consecutive daily doses measured 24 hrs after last dose by everted gut sac method; type: functional
Rattus norvegicus [16] = assay: Effect on bone calcium mobilization in vitamin D-deficient weanling Sprague-Dawley rat assessed as serum calcium level at 35100 pmol/day, ip administered as 4 consecutive daily doses measured 24 hrs after last dose; type: functional
Rattus norvegicus [17] = assay: Effect on intestinal calcium transport in vitamin D-deficient weanling Sprague-Dawley rat assessed as increase in ratio of serosal to mucosal calcium level at 35100 pmol/day, ip administered as 4 consecutive daily doses measured 24 hrs after last dose by everted gut sac method; type: functional

Row | ED50 [2] | pKi (Vitamin D3 receptor) | Ratio Ki [5] | Ratio ED50 [6] | SMILES | Activity (Rattus norvegicus [1]) [mg/dL] | Ratio ED50 (HL-60 [3]) | Activity (Rattus norvegicus [4]) [mg/dL] | ED50 (HL-60 [7]) | Activity (Rattus norvegicus [8]) [mg/dL] | Activity (Rattus norvegicus [9]) [mg/dL] | Activity (Rattus norvegicus [10]) [mg/dL] | Activity (Rattus norvegicus [11]) [mg/dL] | Activity (Rattus norvegicus [12]) [mg/dL] | Activity (Rattus norvegicus [13]) [mg/dL] | Activity (Rattus norvegicus [14]) [mg/dL] | Activity (Rattus norvegicus [15]) [mg/dL] | Activity (Rattus norvegicus [16]) [mg/dL] | Activity (Rattus norvegicus [17]) [mg/dL]
1 | 6 ×10⁻⁹ M | 9.70 | 2 | 30 | C=C1/C(=C\C=C2/CCC[C@]3(C)[C@@H]([C@H](C)CCCC(C)(C)O)CC[C@@H]23)C[C@@H](O)C2=CCO[C@H]12 | 4.3 | 10 | 9.7 | 3 ×10⁻⁸ M | 4.6 | 13.7 |  |  |  |  |  |  |  | 
2 | 2 ×10⁻¹⁰ M |  |  |  | C=C1/C(=C\C=C2/CCC[C@]3(C)[C@@H]([C@H](C)CCCC(C)(C)O)CC[C@@H]23)C[C@@H](O)C[C@@H]1O [CALCITRIOL] | 5.8 |  | 11.3 | 3 ×10⁻⁹ M | 7.9 | 10.2 | 12 | 10.2 | 5.6 | 7.3 | 4.9 | 8.9 | 9 | 8.7
3 | 6 ×10⁻⁸ M | 7.22 | 600 | 300 | C=C1/C(=C\C=C2/CCC[C@]3(C)[C@@H]([C@H](C)CCCC(C)(C)O)CC[C@@H]23)C[C@H]2OCC=C2[C@@H]1O | 4.3 | 330 | 11.3 | 1 ×10⁻⁶ M | 6.1 | 10.2 |  |  |  |  |  |  | 9.6 | 8.7
